Reference: patent US7615533B2, “TPO peptide compounds for treatment of anemia” (Janssen Pharmaceutica N.V., priority 2004, dated 2009)
“Also recorded” adds a separate entry of the source. Non-standard residues stand in square brackets, D forms with d. No end group written: not given here. 2Nal = N[C@@H](Cc1ccc2ccccc2c1)C(=O)O; Sar = CNCC(=O)O

What was measured:
carboplatin treated mice [1] = test: Example 1: increasing doses one day after carboplatin, anemia in mice; format: in vivo, BALB/c mouse
Description: (§1) The effects of PEGylated TPO Compound No. 1 on mice treated with carboplatin were observed. For all examples herein, a 10 mg/ml stock solution of PEGylated TPO Compound No. 1 was prepared in sterile saline. For mixing, the preparation was placed on a gyratory shaker for 15 mm. at 200 rpm. This method was used to dissolve PEGylated TPO Compound No. 1 without foaming. The stock was filtered using a GV Millex (0.22 μm) filter. Dosing solutions were then prepared from this stock using sterile saline. The stock and dosing solutions were prepared fresh on the day of use.
The effect of PEGylated TPO Compound No. 1 on the duration and severity of anemia following treatment of mice with carboplatin as determined by changes in hemoglobin levels, red blood cell count and hematocrit, was observed. For this study, increasing amounts of PEGylated TPO Compound No. 1 were administered to mice one day following a carboplatin dose to characterize a possible dose-dependent effect on various red blood cell parameters.
The groups of mice were treated with either carboplatin or vehicle (Phosphate Buffered Saline, PBS) by intraperitoneal administration on Days −2 and −1 as delineated below. The optimal dose of carboplatin used to induce thrombocytopenia in the BALB/c mouse strain was previously determined to be a fractionated total dose of 120 mg/kg given as two consecutive daily injections (i.e., 2×60 mg/kg). One day following the second dose of carboplatin, groups of mice were treated with PEGylated TPO Compound No. 1 or vehicle (sterile saline, SS, preservative-free 0.90% sodium chloride) by IV (bolus) injection as delineated in Table 1. The dose was administered on a per-weight basis (100 μl/10 g body weight).
(§2) On Days 5, 7, 9 and 11, five mice in each test group were weighed and then euthanised using CO2-asphyxiation and exsanguinations via cardiac puncture. The blood samples were transferred to separate EDTA (lavender-top) microcontainers for hematologic evaluation. Groups of control mice (5) were processed on Days 5 and 11. The data are presented graphically as group means +SEM.

carboplatin treated mice [2] = test: Example 3: dosing at various times after carboplatin, anemia in mice; format: in vivo, BALB/c mouse
Description: as §1
The effect of PEGylated TPO Compound No. 1 on the duration and severity of anemia following dosing regimens in which PEGylated TPO Compound No. 1 is administered at various times following the carboplatin treatment was observed. For this study, an amount of PEGylated TPO Compound No. 1 was administered to mice, one (1) hour, one (1) day or four (4) days following a carboplatin dose.
The groups of mice were treated with either carboplatin or vehicle (Phosphate Buffered Saline, PBS) by ip administration on Days −1 and 0 as delineated below. The optimal dose of carboplatin used to induce thrombocytopenia in the BALB/c mouse strain was previously determined to be a fractionated total dose of 120 mg/kg given as two consecutive daily injections (i.e., 2×60 mg/kg). One hour (Day 0), one day (Day 1) or four days (Day 4) following the second dose of carboplatin, groups of mice were treated with PEGylated TPO Compound No. 1 (300 μg/kg) or vehicle (sterile saline, SS, preservative-free 0.9% sodium chloride) by IV (bolus) injection as delineated in Table 3. The dose was administered on a per-weight basis (100 μl/10 g body weight).
as §2, with “6, 8, 10 & 12,” for “5, 7, 9 and 11,”, “hematological” for “hematologic”, “6 & 12.” for “5 and 11.”

carboplatin treated mice [3] = test: Example 5: two rounds of high-dose carboplatin, hematocrit and survival of mice; format: in vivo, mouse; settings: between days 4 and 18
Description: as §1
Groups of mice were treated with two rounds of the chemotherapeutic agent (carboplatin) ten days apart, with each round consisting of two consecutive days of carboplatin (i.e., 70 mg/kg/day administered on Days −1 & 0 and Days 10 & 11) as delineated below. The dose of carboplatin utilized for these survival studies exceeded the maximal tolerated dose for mice (i.e., 120 mg/kg; administered as 60 mg/kg/day on 2 consecutive days). One hour following the second dose of carboplatin in each round (i.e., Day 0 and 11) mice were treated with PEGylated TPO Compound No. 1 (100 μg/kg) or vehicle (sterile saline, SS, preservative-free 0.9% sodium chloride) by IV (bolus) injection as delineated below. The dose was administered on a per weight basis (100 μl/10 g body weight). […]

carboplatin treated mice [4] = test: Example 6: mechanistic study, increasing carboplatin, hematology and brain fibrinogen/fibrin histology; format: in vivo, mouse
Description: as §1
For mechanistic studies, groups of mice were treated with vehicle or increasing amounts of carboplatin (i.e., 60, 70 or 80 mg/kg) for 2 consecutive days (Day −1 & Day 0). Approximately one hour following the second dose of carboplatin, groups of mice were treated with PEGylated TPO Compound No. 1 (100 μg/kg) or vehicle (sterile saline, SS, preservative-free 0.9% sodium chloride) by IV (bolus) injection as delineated in Table 5.
On Day 15, the mice in all treatment groups were euthanised using CO2-asphyxiation and exsanguinations via cardiac puncture. The blood samples were transferred to separate EDTA (lavender-top) microtainers for hematologic evaluation. In addition, several organs (including the brains) of control mice and mice treated with 2×70 mg/kg carboplatin without and with co-treatment with PEGylated TPO Compound No. 1 were isolated and processed for histological examination. Sections of these tissues were processed immunohistochemically for fibrinogen/fibrin.

Compound	decrease in hemoglobin levels (carboplatin treated mice [1]; carboplatin alone 2×60 mg/kg ip, by Day 11) [%]	decreases in hemoglobin levels, RBC counts and hematocrits (carboplatin treated mice [2]; carboplatin alone 2×60 mg/kg ip, surviving mice (2 mice) by Day 12 compared to control groups)	deaths among mice not utilized for hematological evaluation (carboplatin treated mice [3]; carboplatin alone 70 mg/kg/day, 2 rounds) [mice]	mortality (carboplatin treated mice [4]; 2×80 mg/kg carboplatin (alone), all of the mice, prior to study termination)	carboplatin-associated decreases in RBC count and hematocrit (carboplatin treated mice [1]; 300, 1000, 3000 μg/kg iv one day after carboplatin, no statistical evaluation)	carboplatin-induced decrease in hemoglobin levels (carboplatin treated mice [1]; all doses (300, 1000, 3000 μg/kg iv, one day after carboplatin 2×60 mg/kg ip), by Day 11)	body weight after carboplatin (carboplatin treated mice [1]; all doses tested, 11-Day study period)	altered appearance and behavior (hunched, flaccid, soiled anogenital areas) (carboplatin treated mice [1]; appeared to be dose-dependent)	carboplatin-induced decreases in hemoglobin levels, RBC counts and hematocrits (carboplatin treated mice [2]; 300 μg/kg iv on Day 0 (1 hour after carboplatin) and on Day 1)	weight loss associated with carboplatin treatment (carboplatin treated mice [2]; 300 μg/kg iv on Day 0, Day 1 or Day 4, no statistical analysis)	carboplatin-induced changes in erythrocyte parameters (carboplatin treated mice [2]; 300 μg/kg iv on Day 4)	onset, frequency or severity of signs (hunched, flaccid) (carboplatin treated mice [2]; 300 μg/kg iv, no detailed analysis)	carboplatin-induced anemia (carboplatin treated mice [2]; dosed within 24 hours of chemotherapy)	deaths among mice not utilized for hematological evaluation (carboplatin treated mice [3]; combination therapy (carboplatin 70 mg/kg/day, 2 rounds, plus 100 μg/kg iv)) [mouse]	carboplatin-induced decreases in platelet and RBC counts (carboplatin treated mice [4]; 100 μg/kg iv about one hour after second carboplatin dose, Day 15)	microthrombotic events in brain sections, entire dose group (carboplatin treated mice [4]; 2×70 mg/kg carboplatin plus 100 μg/kg iv)	fibrinogen/fibrin staining of small vessels in brain sections (carboplatin treated mice [4]; 2×70 mg/kg carboplatin plus 100 μg/kg iv, Day 15, 70 mg/kg)	thrombocytopenia or anemia (carboplatin treated mice [4]; 2×80 mg/kg carboplatin plus 100 μg/kg iv, Day 15)	survival (carboplatin treated mice [4]; 2×80 mg/kg carboplatin plus 100 μg/kg iv, all of the mice)
N.N.O=C([O-])C1(C(=O)[O-])CCC1.[Pt+2] [carboplatin, reference compound]	~20	approx. 47%	7	either found dead or were euthanized (moribund)	–	–	–	–	–	–	–	–	–	–	–	–	–	–	–
Methoxypolyethyleneglycol20000-propionyl-L-Isoleucyl-L-Glutamyl-Glycyl-L-Prolyl-L-Threonyl-L-Leucyl-L-Arginyl-L-Glutaminyl-L-2-Naphthylalanyl-L-Leucyl-L-Alanyl-L-Alanyl-L-Arginyl-Sarcosyl-Ne-(methoxypolyethyleneglycol20000-propionyl-L-Isoleucyl-L-Glutamyl-Glycyl-L-Prolyl-L-Threonyl-L-Leucyl-L-Arginyl-L-Glutaminyl-L-2-Naphthylalanyl-L-Leucyl-L-Alanyl-L-Alanyl-L-Arginyl-Sarcosyl-)-Lysinamide ({methoxypolyethyleneglycol20000‑propionyl}-IEGPTLRQ[2Nal]LAAR[Sar]K[Sar]RAAL[2Nal]QRLTPGEI; also: dimer: positions 16-29 are the second 14-mer written in reverse, its Sar C-terminus joined to the K15 epsilon-amine, K15 is C-terminal lysinamide (NH2), methoxypolyethyleneglycol20000-propionyl also on Ile29 N-terminus) [PEGylated TPO Compound No. 1]	–	–	–	–	inhibited	inhibited	enhanced the recovery of the lost body weight	decreased the onset, frequency and severity of these signs	prevented	did not appear to affect the weight loss	failed to affect carboplatin-induced changes	did not appear to have a dramatic effect	Prevention of carboplatin-induced anemia is observed	1	totally inhibited	single	appeared normal or exhibited fibrinogen/fibrin staining that was only slightly darker than the control group; also recorded: reduces fibrinogen deposition and blood clots	did not exhibit thrombocytopenia or anemia	survived until the scheduled study termination
